Test results as given in patent publication US6933131B2, “Nucleic acids encoding insect acetylcholine receptor subunits” (Bayer Aktiengesellschaft, priority 1998, dated 2005).

System: acetylcholine receptors according to the invention (recombinantly modified HEK293 cells of Example 2)
Conditions: nicotine final concentration 500 μM; HEK293 cells expressing the α subunit of an L-type Ca channel, recombinantly modified as in Example 2; FIG. 1
Description: Cells were loaded with Fura-2-acetoxymethyl ester (5-10 μM in serum-free minimal essential medium containing 1% bovine serum albumin and 5 mM calcium chloride), washed with Tyrode solution buffered with N-(2-hydroxyethyl)piperazine-N′-(2-ethanesulphonic acid) (5 mM HEPES) and alternately illuminated, under a fluorescence microscope (Nikon Diaphot) with light of 340 nm and 380 nm wavelength. A measurement point corresponds to a pair of video images at the two wavelengths (exposure time per image, 100 ms). The time interval between two measurement points is 3 s. […] The fluorescence intensity of the cells when illuminated with light of 380 nm wavelength was divided by the corresponding intensity at 340 nm, thereby giving the ratio.
HEK293 cells, which express the α subunit of an L-type Ca channel (Zong et al. 1995, Stetzer et al. 1996), were cultured in Dulbecco's modified Eagle's medium and 10% foetal calf serum at 5% CO2 and from 20° C. to 37° C. […] Individual resistant clones were analyzed as described below.
The alterations in the intracellular calcium concentration were measured using Fura-2. […] 100 μl Tyrode buffer were added to the wells of the microtitre plate and the cells were illuminated alternately, under a fluorescence microscope (Nikon Diaphot), with light of 340 nm and 380 nm wavelength. […]

CN1CCCC1c1cccnc1 (stereo not shown) [nicotine]
change in intracellular calcium (Fura-2 fluorescence ratio 380 nm/340 nm) following the addition of nicotine: increase in intracellular calcium
